According to patent US4145540A, “7β-Phosphoramido-7α-methoxycephalosporanic acid derivatives” (Takeda Chemical Industries, Ltd., priority 1975, dated 1979):

Columns and labels:
Assay in all cases: antibiotic activity (MIC)
Assay type in all cases: cell-based
[1] = tested on: E. coli 0-111; details: Escherichia coli, 0111
Source text: (§1) The antibiotic activity of sodium 7α-methoxy-7β-(2-aminothiazol-4-ylacetamido)-3-(1-methyl-1H-tetrazol-5-ylthiomethyl)-3-cephem-4-carboxylate obtained in the reference experiment is shown as follows.

[2] = tested on: E. coli NIHJ; details: Escherichia coli
Source text: as §1

[3] = tested on: E. coli T-7; details: Escherichia coli, T7
Source text: as §1

[4] = tested on: K. pneumoniae DT; details: Klebsiella pneumoniae
Source text: as §1

[5] = tested on: K. pneumoniae GN 3835; details: Klebsiella pneumoniae, GN3835
Source text: as §1

[6] = tested on: P. vulgaris GN 4413; details: Proteus vulgaris, GN4413
Source text: as §1

[7] = tested on: Ps. aeruginosae PM3; details: Pseudomonas aeruginosa
Source text: as §1

[8] = tested on: S. aureus 1840; details: Staphylococcus aureus
Source text: as §1

[9] = tested on: S. aureus 209p; details: Staphylococcus aureus
Source text: as §1

[10] = tested on: S. aureus Fs 40204; details: Staphylococcus aureus, FS40204
Source text: as §1

[11] = tested on: Serr. marcescens IFO 12648; details: Serratia marcescens, IFO12648
Source text: as §1

[12] = tested on: Serratia TN0024
Source text: as §1

CO[C@@]1(NC(=O)Cc2csc(N)n2)C(=O)N2C(C(=O)O)=C(CSc3nnnn3C)CS[C@@H]21 [Sodium 7α-methoxy-7β-(2-aminothiazol-4-ylacetamido)-3-(1-methyl-1H-tetrazol-5-ylthiomethyl)-3-cephem-4-carboxylate]
MIC [1]: 0.78 µg/mL | MIC [2]: 1.56 µg/mL | MIC [3]: 6.25 µg/mL | MIC [4]: 0.78 µg/mL | MIC [5]: 1.56 µg/mL | MIC [6]: 6.25 µg/mL | MIC [7]: 6.25 µg/mL | MIC [8]: 3.13 µg/mL | MIC [9]: 1.56 µg/mL | MIC [10]: 3.13 µg/mL | MIC [11]: 6.25 µg/mL | MIC [12]: 6.25 µg/mL
